pIC50: −log10 of the molar value. Some results are limits rather than exact numbers.

As a reminder, the pIC50 is the IC50 on a negative log10 scale, so that one unit is a factor of ten.

For the first assay, the target named is T1, CaV2.2 (Homo sapiens, UniProt Q00975).
T1 construct: expressed in transfected cells; host or cells: HEK293
T1 sequence (Q00975 whole entry): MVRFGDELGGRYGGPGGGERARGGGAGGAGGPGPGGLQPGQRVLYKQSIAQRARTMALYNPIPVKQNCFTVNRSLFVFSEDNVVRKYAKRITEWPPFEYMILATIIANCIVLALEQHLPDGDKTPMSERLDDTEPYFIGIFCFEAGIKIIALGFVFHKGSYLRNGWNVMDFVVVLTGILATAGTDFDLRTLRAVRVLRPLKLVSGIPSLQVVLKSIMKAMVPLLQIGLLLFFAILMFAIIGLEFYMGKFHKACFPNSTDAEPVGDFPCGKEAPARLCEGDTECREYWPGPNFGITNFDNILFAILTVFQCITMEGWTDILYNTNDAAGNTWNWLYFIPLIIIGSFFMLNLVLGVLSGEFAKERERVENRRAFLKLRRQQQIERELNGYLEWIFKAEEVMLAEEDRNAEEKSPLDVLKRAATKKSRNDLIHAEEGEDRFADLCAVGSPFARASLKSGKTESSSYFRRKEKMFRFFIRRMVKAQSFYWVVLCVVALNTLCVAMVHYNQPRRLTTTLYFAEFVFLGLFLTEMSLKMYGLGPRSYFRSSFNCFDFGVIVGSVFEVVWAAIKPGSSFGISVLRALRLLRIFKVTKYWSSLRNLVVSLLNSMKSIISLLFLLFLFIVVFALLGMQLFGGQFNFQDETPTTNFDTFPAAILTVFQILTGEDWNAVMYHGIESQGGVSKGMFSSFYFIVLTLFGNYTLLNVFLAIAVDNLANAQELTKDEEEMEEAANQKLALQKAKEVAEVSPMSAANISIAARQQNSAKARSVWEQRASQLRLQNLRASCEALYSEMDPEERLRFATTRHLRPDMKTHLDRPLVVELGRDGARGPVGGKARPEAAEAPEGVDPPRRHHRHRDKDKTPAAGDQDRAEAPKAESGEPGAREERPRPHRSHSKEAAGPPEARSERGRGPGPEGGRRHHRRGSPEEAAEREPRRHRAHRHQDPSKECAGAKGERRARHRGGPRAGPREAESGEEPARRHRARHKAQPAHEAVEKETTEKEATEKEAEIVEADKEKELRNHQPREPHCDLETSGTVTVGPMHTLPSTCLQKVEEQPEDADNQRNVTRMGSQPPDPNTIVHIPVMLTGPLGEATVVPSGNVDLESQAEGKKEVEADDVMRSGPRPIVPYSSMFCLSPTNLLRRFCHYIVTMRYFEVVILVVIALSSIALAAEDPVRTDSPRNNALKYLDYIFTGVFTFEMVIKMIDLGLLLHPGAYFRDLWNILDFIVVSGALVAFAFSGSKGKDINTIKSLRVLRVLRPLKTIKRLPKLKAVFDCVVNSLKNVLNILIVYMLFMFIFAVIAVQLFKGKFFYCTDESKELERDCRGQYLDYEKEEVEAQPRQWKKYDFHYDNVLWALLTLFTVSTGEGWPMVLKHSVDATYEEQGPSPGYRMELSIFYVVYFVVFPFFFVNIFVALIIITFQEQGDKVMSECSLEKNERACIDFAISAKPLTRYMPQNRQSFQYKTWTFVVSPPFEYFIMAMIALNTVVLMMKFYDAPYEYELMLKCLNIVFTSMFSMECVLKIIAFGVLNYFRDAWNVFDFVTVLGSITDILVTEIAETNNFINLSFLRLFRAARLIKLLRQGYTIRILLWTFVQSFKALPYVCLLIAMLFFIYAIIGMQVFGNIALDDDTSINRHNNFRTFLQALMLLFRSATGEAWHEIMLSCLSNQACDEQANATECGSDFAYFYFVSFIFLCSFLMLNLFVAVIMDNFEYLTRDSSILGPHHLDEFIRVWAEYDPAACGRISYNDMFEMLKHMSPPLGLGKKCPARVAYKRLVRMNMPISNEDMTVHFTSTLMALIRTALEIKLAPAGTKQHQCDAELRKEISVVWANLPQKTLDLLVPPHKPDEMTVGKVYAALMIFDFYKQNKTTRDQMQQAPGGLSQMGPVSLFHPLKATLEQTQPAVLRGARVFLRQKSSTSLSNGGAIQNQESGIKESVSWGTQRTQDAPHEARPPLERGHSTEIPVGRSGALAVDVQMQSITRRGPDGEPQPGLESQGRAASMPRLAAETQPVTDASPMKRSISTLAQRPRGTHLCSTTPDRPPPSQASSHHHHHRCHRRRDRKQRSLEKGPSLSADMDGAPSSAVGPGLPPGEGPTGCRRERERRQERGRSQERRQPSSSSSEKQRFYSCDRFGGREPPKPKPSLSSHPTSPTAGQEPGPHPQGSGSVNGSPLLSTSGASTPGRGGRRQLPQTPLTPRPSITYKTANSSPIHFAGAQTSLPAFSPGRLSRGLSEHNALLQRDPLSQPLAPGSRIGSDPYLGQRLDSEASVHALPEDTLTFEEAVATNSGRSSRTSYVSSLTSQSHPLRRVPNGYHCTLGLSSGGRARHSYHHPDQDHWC
T1 sequence (P54284 whole entry partner): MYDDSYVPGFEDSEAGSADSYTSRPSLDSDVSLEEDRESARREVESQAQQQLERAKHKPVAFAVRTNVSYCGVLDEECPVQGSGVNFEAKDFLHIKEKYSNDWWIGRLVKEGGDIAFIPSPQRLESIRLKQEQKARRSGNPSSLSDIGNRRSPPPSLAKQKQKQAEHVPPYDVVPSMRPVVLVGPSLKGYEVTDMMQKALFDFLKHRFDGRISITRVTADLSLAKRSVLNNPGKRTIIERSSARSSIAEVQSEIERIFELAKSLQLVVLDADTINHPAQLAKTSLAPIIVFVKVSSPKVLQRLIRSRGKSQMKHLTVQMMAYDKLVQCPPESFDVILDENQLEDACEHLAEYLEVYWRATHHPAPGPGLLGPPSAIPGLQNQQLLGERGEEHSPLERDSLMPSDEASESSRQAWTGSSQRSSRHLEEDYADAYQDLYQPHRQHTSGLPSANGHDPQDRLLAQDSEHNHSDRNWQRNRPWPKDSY
T1 sequence (P54289 25-946 partner limits assumed): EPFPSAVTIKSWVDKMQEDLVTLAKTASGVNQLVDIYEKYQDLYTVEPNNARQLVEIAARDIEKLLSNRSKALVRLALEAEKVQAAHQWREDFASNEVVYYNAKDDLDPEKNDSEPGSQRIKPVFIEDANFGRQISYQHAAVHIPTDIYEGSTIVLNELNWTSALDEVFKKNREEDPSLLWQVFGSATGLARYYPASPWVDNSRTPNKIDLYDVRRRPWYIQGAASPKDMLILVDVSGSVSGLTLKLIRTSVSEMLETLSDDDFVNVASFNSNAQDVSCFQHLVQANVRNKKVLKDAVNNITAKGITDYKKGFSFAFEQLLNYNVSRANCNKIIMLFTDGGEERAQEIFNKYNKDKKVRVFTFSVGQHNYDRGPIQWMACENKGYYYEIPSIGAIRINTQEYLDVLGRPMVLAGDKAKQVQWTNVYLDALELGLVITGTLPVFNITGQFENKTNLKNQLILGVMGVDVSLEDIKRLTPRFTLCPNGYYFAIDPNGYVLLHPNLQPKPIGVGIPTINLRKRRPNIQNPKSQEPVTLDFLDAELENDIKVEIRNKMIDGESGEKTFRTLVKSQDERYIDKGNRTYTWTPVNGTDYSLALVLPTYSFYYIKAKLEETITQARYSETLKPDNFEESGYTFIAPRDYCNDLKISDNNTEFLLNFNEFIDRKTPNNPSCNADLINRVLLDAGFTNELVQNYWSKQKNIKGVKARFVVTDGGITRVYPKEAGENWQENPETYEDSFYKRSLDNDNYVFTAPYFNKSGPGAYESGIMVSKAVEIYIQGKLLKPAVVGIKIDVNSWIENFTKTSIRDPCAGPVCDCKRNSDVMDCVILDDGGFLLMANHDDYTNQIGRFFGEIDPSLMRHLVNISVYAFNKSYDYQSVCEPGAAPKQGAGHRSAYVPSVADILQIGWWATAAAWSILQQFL
T1 sequence (P54289 947-1103 partner limits assumed): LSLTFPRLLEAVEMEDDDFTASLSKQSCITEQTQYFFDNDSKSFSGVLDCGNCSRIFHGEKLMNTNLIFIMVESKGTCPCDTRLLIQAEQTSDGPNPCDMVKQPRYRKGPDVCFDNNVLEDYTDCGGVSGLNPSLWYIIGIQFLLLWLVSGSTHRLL
Briefly: VIPR optical membrane potential assay with electrical stimulation.
Details: not given
In kind it is cell-based. As for the experimental part:
Antagonist properties of test compounds were assessed as follows. Cells expressing the CaV of interest were placed into microtiter plates. After an incubation period, the cells were stained with fluorescent dyes sensitive to the transmembrane potential. The test compounds were added to the microtiter plate. The cells were stimulated with electrical means to evoke a CaV dependent membrane potential change from unblocked channels, which was detected and measured with trans-membrane potential-sensitive dyes. Antagonists were detected as a decreased membrane potential response to the stimulus.
VIPR® Optical Membrane Potential Assay Method with Electrical Stimulation
The following is an example of how CaV2.2 inhibition activity is measured using the optical membrane potential method. Other subtypes are performed in an analogous mode in a cell line expressing the CaV of interest.
HEK293 cells stably expressing CaV2.2 are plated into 96-well microtiter plates. After an appropriate incubation period, the cells are stained with the voltage sensitive dyes CC2-DMPE/DiSBAC2(3) as follows.
2×CC2-DMPE=20 μM CC2-DMPE: 10 mM CC2-DMPE is vortexed with an equivalent volume of 10% Pluronic, followed by vortexing in required amount of HBSS containing 10 mM HEPES. Each cell plate will require 5 mL of 2×CC2-DMPE. 50 μL of 2×CC2-DMPE is added to wells containing washed cells, resulting in a 10 μM final staining concentration. The cells are stained for 30 minutes in the dark at RT.
Vortex in required amount of Bath X with beta-cyclodextrin. Each 96 well cell plate will require 5 ml of 2×CC2DMPE. Wash plate with ELx405 with Bath X, leaving a residual volume of 50 μL/well. Add 50 μL of 2×CC2DMPE & DISBAC6(3) to each well. Stain for 30 minutes in the dark at RT.
Allow solution to sit for 10 minutes. Slowly mix in 370 mM BaCl2. This solution can be used to solvate compound plates. Note that compound plates are made at 1.5× drug concentration and not the usual 2×. Wash CC2 stained plate, again, leaving residual volume of 50 pt. Add 100 uL/well of the AY17 solution. Stain for 15 minutes in the dark at RT. Run plate on the optical reader.
The instrument comprises a microtiter plate handler, an optical system for exciting the coumarin dye while simultaneously recording the coumarin and oxonol emissions, a waveform generator, a current- or voltage-controlled amplifier, and a device for inserting electrodes in well. Under integrated computer control, this instrument passes user-programmed electrical stimulus protocols to cells within the wells of the microtiter plate.
Insert or use electrodes into each well to be assayed.
Use the current-controlled amplifier to deliver stimulation wave pulses for 3-5 s. Two seconds of pre-stimulus recording are performed to obtain the un-stimulated intensities. Five seconds of post-stimulation recording are performed to examine the relaxation to the resting state.
Data are analyzed and reported as normalized ratios of background-subtracted emission intensities measured in the 460 nm and 580 nm channels. Background intensities are then subtracted from each assay channel. Background intensities are obtained by measuring the emission intensities during the same time periods from identically treated assay wells in which there are no cells. The response as a function of time is then reported as the ratios obtained using the following formula: […]
The data is further reduced by calculating the initial (Ri) and final (Rf) ratios. These are the average ratio values during part or all of the pre-stimulation period, and during sample points during the stimulation period. The response to the stimulus R=Rf/Ri is then calculated.
Control responses are obtained by performing assays in the presence of a compound with the desired properties (positive control), such as mibefradil, and in the absence of pharmacological agents (negative control). Responses to the negative (N) and positive (P) controls are calculated as above.
In the case of `Cc1c(C(=O)N2CCC3(CC2)OCCO3)oc2ccc(S(=O)(=O)N3CCCC(C)C3)cc12` (centres unmarked) [compound 299], the negative-log IC50 (pIC50) is 4.70 to 5.30.

The assay is the same for the next values; noted with them: Table 3, biological assay data; read-out: IC50.
With `CNC(=O)c1oc2ccc(S(=O)(=O)N3CC(C)CC(C)C3)cc2c1C` (centres unmarked) [compound 214], the pIC50 was over 5.30. In the case of `CC1CC(C)CN(S(=O)(=O)c2ccc3c(c2)cc(C(=O)NC2CC2)n3S(=O)(=O)c2ccccc2)C1` (centres unmarked) [compound 349], the pIC50 is over 5.30.

On to `Cc1c(C(=O)N(C)C)oc2ccc(S(=O)(=O)N3CCC(C)CC3)cc12` [compound 353], for which the pIC50 was 4.70 to 5.30. In the case of `CCNC(=O)c1cc2cc(S(=O)(=O)N3CCC(C)CC3)ccc2o1` [compound 131], the pIC50 was over 5.30. Same read-out and setting: the result for `Cc1c(C(=O)N2CCCC(C)C2)oc2ccc(S(=O)(=O)N3CCCC(C)C3)cc12` (centres unmarked) [compound 413] reads over 5.30; that for `Cc1c(C(=O)N(C(C)C)C(C)C)[nH]c2ccc(S(=O)(=O)N3CCC(C)CC3)cc12` [compound 262], over 5.30. Turning to `CCCCN(C)C(=O)c1cc2cc(S(=O)(=O)N3CCC(C)CC3)ccc2o1` [compound 83], the pIC50 was over 5.30. `CC1CCN(S(=O)(=O)c2ccc3[nH]c(C(=O)NCc4ccccc4)cc3c2)CC1` [compound 36]: the pIC50 was over 5.30. For `Cc1c(C(=O)N2CCC(C)CC2)[nH]c2ccc(S(=O)(=O)N3CCC(C)CC3)cc12` [compound 269], the pIC50 was 4.70 to 5.30. With `Cc1c(C(=O)NCCc2ccccc2)oc2ccc(S(=O)(=O)N3CC(C)CC(C)C3)cc12` (centres unmarked) [compound 393], the pIC50 is over 5.30. Consider `CCCCN(C)C(=O)c1cc2cc(S(=O)(=O)N3CCC(C)CC3)ccc2[nH]1` [compound 141], for which the negative logarithm of the IC50 (pIC50) is over 5.30. `Cc1c(C(=O)NC2CCCc3ccccc32)oc2ccc(S(=O)(=O)N3CCOCC3)cc12` (centres unmarked) [compound 109]: the pIC50 was over 4.70.

Regarding `Cc1c(C(=O)NC2CCCCC2)oc2ccc(S(=O)(=O)N3CCC4(CC3)OCCO4)cc12` [compound 371], the pIC50 was 4.70 to 5.30. Consider `Cc1c(C(=O)N2CCCCC2)[nH]c2ccc(S(=O)(=O)N3CC(C)CC(C)C3)cc12` (centres unmarked) [compound 440], for which the pIC50 was over 5.30.

Take `CCNC(=O)c1cc2cc(S(=O)(=O)N3CCCCCC3)ccc2[nH]1` [compound 77]: the pIC50 was over 5.30. Turning to `Cc1c(C(=O)NC2CCCCC2)oc2ccc(S(=O)(=O)N3CCOCC3)cc12` [compound 75], the pIC50 was over 4.70. Turning to `O=C(c1cc2cc(S(=O)(=O)N3CCCCCC3)ccc2o1)N1CCCCCC1` [compound 169], the pIC50 was over 5.30.

Consider `Cc1c(C(=O)N(C(C)C)C(C)C)oc2ccc(S(=O)(=O)N3CC(C)CC(C)C3)cc12` (centres unmarked) [compound 284], for which the pIC50 is over 5.30. With `CC1CCN(S(=O)(=O)c2ccc3oc(C(=O)N(C(C)C)C(C)C)cc3c2)CC1` [compound 138], the pIC50 was over 5.30. As for `CCN(CC)S(=O)(=O)c1ccc2oc(C(=O)NC3CCCCC3)c(C)c2c1` [compound 370], the pIC50 is 4.70 to 5.30. With `CCNC(=O)c1cc2cc(S(=O)(=O)N3CC(C)CC(C)C3)ccc2[nH]1` (centres unmarked) [compound 384], the pIC50 was over 5.30. Same read-out and setting: the result for `CCN(CC)C(=O)c1oc2ccc(S(=O)(=O)N3CCCCCC3)cc2c1C` [compound 92] reads 4.70 to 5.30. For `CCN(CC)C(=O)c1cc2cc(S(=O)(=O)N3CCC(C)CC3)ccc2n1C` [compound 244], the pIC50 is over 5.30. Still for that read-out and setting: as for `CC1CC(C)CN(S(=O)(=O)c2ccc3oc(C(=O)N4CCCCC4)cc3c2)C1` (centres unmarked) [compound 100], the figure is over 5.30. The same measure, in the same setting: as for `O=C(NCC1CCCO1)c1cc2cc(S(=O)(=O)N3CCCCCC3)ccc2o1` (centres unmarked) [compound 429], the figure is 4.70 to 5.30; as for `CN1CCN(C(=O)c2cc3cc(S(=O)(=O)N4CCCCCC4)ccc3o2)CC1` [compound 165], 4.70 to 5.30. For the compound `CC1CCN(S(=O)(=O)c2ccc3[nH]c(C(=O)N(C(C)C)C(C)C)cc3c2)CC1` [compound 140], the pIC50 was over 5.30.

For the compound `CC1CC(C)CN(S(=O)(=O)c2ccc3[nH]c(C(=O)N(C)Cc4ccccc4)cc3c2)C1` (centres unmarked) [compound 185], the pIC50 is over 5.30.

For `CC1CCN(S(=O)(=O)c2ccc3[nH]cc(C(N)=O)c3c2)CC1` [compound 306], the pIC50 was over 4.70.

In the case of `Cc1c(C(=O)NCc2ccccn2)oc2ccc(S(=O)(=O)N3CCC(C)CC3)cc12` [compound 203], the pIC50 is 4.70 to 5.30. Consider `Cc1c(C(=O)NC2CCCC2)[nH]c2ccc(S(=O)(=O)N3CC(C)CC(C)C3)cc12` (centres unmarked) [compound 390], for which the pIC50 is over 5.30. On to `Cc1c(C(=O)N2CCC(C)CC2)[nH]c2ccc(S(=O)(=O)N3CC(C)CC(C)C3)cc12` (centres unmarked) [compound 103], for which the pIC50 was over 5.30. On the same count and under the same terms, the result for `Cc1c(C(=O)N(C(C)C)C(C)C)oc2ccc(S(=O)(=O)N3CCCC(C)C3)cc12` (centres unmarked) [compound 263] reads over 5.30. Regarding `Cc1c(C(=O)N2CCCC2)oc2ccc(S(=O)(=O)N3CC(C)CC(C)C3)cc12` (centres unmarked) [compound 414], the pIC50 is over 5.30. For the compound `CC1CCN(S(=O)(=O)c2ccc3[nH]c(C(=O)N4CCCCCC4)cc3c2)CC1` [compound 348], the pIC50 is 4.70 to 5.30.

In the case of `CC1CC(C)CN(S(=O)(=O)c2ccc3[nH]c(C(=O)NCC4CCCO4)cc3c2)C1` (centres unmarked) [compound 16], the pIC50 is over 5.30. Consider `CC1CCN(S(=O)(=O)c2ccc3[nH]cc(C(=O)NC4CC4)c3c2)CC1` [compound 434], for which the pIC50 is over 4.70. Same read-out and setting: the result for `Cc1c(C(=O)N2CCSCC2)oc2ccc(S(=O)(=O)N3CCC(C)CC3)cc12` [compound 236] reads 4.70 to 5.30; that for `CC1CCN(S(=O)(=O)c2ccc3[nH]c(C(=O)N4CCCCC4C)cc3c2)CC1` (centres unmarked) [compound 436], over 5.30; that for `CCNC(=O)c1oc2ccc(S(=O)(=O)N3CCCCCC3)cc2c1C` [compound 150], 4.70 to 5.30. `Cc1c(C(=O)NCC2CCCO2)oc2ccc(S(=O)(=O)N3CC(C)CC(C)C3)cc12` (centres unmarked) [compound 32]: the pIC50 was over 5.30. Still for that read-out and setting: the result for `CCOC(=O)N1CCN(C(=O)c2cc3cc(S(=O)(=O)N4CC(C)CC(C)C4)ccc3[nH]2)CC1` (centres unmarked) [compound 415] reads over 5.30; that for `Cc1c(C(=O)N2CCC(C)CC2)oc2ccc(S(=O)(=O)N3CC(C)CC(C)C3)cc12` (centres unmarked) [compound 466], over 5.30; that for `O=C(NC1CCCCC1)c1cc2cc(S(=O)(=O)N3CCCCCC3)ccc2o1` [compound 427], over 5.30. Regarding `CNC(=O)c1oc2ccc(S(=O)(=O)N3CCCC(C)C3)cc2c1C` (centres unmarked) [compound 365], the pIC50 was 4.70 to 5.30. The same measure, in the same setting: the result for `CCCCN(C)C(=O)c1cc2cc(S(=O)(=O)N3CC(C)CC(C)C3)ccc2[nH]1` (centres unmarked) [compound 377] reads over 5.30. With `CCOC(=O)N1CCN(C(=O)c2[nH]c3ccc(S(=O)(=O)N4CCCCCC4)cc3c2C)CC1` [compound 235], the pIC50 was 4.70 to 5.30.

With `CC1CCN(S(=O)(=O)c2ccc3[nH]c(C(=O)NCC4CCCO4)cc3c2)CC1` (centres unmarked) [compound 407], the pIC50 is over 5.30. With `Cc1c(C(=O)NC(C)c2ccccc2)oc2ccc(S(=O)(=O)N3CCCC3)cc12` (centres unmarked) [compound 28], the negative-log IC50 (pIC50) was over 4.70. As to `Cc1c(C(=O)NC2CCCC2)[nH]c2ccc(S(=O)(=O)N3CCC(C)CC3)cc12` [compound 146], the pIC50 is over 5.30. Still for that read-out and setting: the result for `O=C(NCC1CCCO1)c1cc2cc(S(=O)(=O)N3CCCCCC3)ccc2[nH]1` (centres unmarked) [compound 386] reads over 5.30; that for `Cc1c(C(=O)N(C(C)C)C(C)C)oc2ccc(S(=O)(=O)N3CCCCCC3)cc12` [compound 159], 4.70 to 5.30; that for `CCCN(c1ccc2[nH]c(C(=O)NC3CC3)cc2c1)S(=O)(=O)c1ccccc1` [compound 181], 4.70 to 5.30. With `O=C(c1cc2cc(S(=O)(=O)N3CCCCCC3)ccc2[nH]1)N1CCCCC1` [compound 354], the pIC50 was 4.70 to 5.30.

As to `O=C(NC1CC1)c1cc2cc(N(Cc3ccccc3)S(=O)(=O)c3ccccc3)ccc2[nH]1` [compound 66], the pIC50 is 4.70 to 5.30.

(Values after patent US8211935B2, “Heterocyclic derivatives for modulation of calcium channels” (Vertex Pharmaceuticals Incorporated, priority 2004, dated 2012).)
